Reference: publication PMC5533769, “A cell-based high-throughput screening assay system for inhibitor compounds of antigen presentation by HLA class II molecule” (Scientific Reports, 2017)

Key:
DR1 (DRB1*01:01) = biological target: T1, DR1 (DRB1*01:01) (Homo sapiens, UniProt P01903+P01911, A100R/D57E/F55L/F60I/F76Y/I96L/L162R/M171V/P40L/Q125E/R42F/V115G/Y59C); assay: 96-well competition assay: inhibition of MBP83-99 loading to DR1-expressing 3T3 cells; type: binding
T1 construct: The open reading frame for DRA or DRB1 were flanked with Xho 1 and EcoR1 sites; expressed in transfected cells

[1] = test system: DR15-expressing 3T3 cells; conditions: crystal violet (A550); 1 h with CLIP, then MBP83-99 6 h
DR15 (DRB1*15:01) = biological target: T2, DR15 (DRB1*15:01) (Homo sapiens, UniProt P01903+P01911, OTHER:DRA*01:01ANDEACHDRB1VECTORSWEREINTRODUCEDINTOTHECELLSAT1:1RATIO/OTHER:MBP83-99TODR15(DRB1*15:01)); assay: 96-well competition assay: inhibition of MBP83-99 loading to DR15-expressing 3T3 cells; type: binding
T2 construct: The open reading frame for DRA or DRB1 were flanked with Xho 1 and EcoR1 sites; expressed in transfected cells

[2] = test system: HLA-DR (DRB1*01:01, DRB1*04:05, DRB1*09:01, DRB1*15:01); assay: FACS binding of biotinylated peptide to panel of HLA-DR on HEK293T cells; parameters: species or system human
[3] = test system: DR1 (DRB1*01:01) and DR4 (DRB1*04:01); conditions: HLA-DRB1*01:01 and DRB1*04:01; ref [4], [5]; cited from earlier work
From the text: An array of autoimmune diseases, including rheumatoid arthritis (RA) and multiple sclerosis (MS), are associated with particular alleles of HLA-DRB1[1], [3]. […] On ...

[4] = test system: HLA-DR (DRB1*01:01, DRB1*04:05, DRB1*09:01, DRB1*15:01); assay: FACS binding of biotinylated peptide to panel of HLA-DR on stable 3T3 cells; parameters: species or system human; conditions: SA-PE, […], biotinylated peptide 30 µM overnight
[5] = biological target: HLA-DR15 (DRA*01:01/DRB1*15:01) (Homo sapiens, UniProt P01903+P01911); assay: FACS binding of biotinylated peptide to HLA-DR15 on HEK293T cells; conditions: SA-PE, HEK293T transiently expressing DRA*01:01 + DRB1*15:01, biotinylated peptide 30 µM, 5 h (>5 h), 3 to 6 independent experiments
[6] = biological target: T3, HLA-DR1 (DRA*01:01/DRB1*01:01) (Homo sapiens, UniProt P01903+P01911, A100R/D57E/F55L/F60I/F76Y/I96L/L162R/M171V/P40L/Q125E/R42F/V115G/Y59C); assay: FACS binding of biotinylated peptide to HLA-DR1 on stable 3T3 cells; conditions: SA-PE, stable 3T3, DRA*01:01 + DRB1*01:01, biotinylated peptide 30 µM overnight
[7] = biological target: T3, HLA-DR1 (DRA*01:01/DRB1*01:01); assay: FACS binding of biotinylated peptide to HLA-DR1 on HEK293T cells; conditions: SA-PE, biotinylated peptide 30 µM, >5 h, 3 to 6 independent experiments

| Compound | IC50 (DR1 (DRB1*01:01)) | Kd (DR1 (DRB1*01:01)) | Cell number after binding assay (cytotoxicity), DR15 cells [1] | IC50 (DR15 (DRB1*15:01)) | Kd (DR15 (DRB1*15:01)) | Cell number after binding assay (cytotoxicity), DR1 cells (DR1-expressing 3T3 cells) | Binding MFI compared with MBP83-99 [2] | Presentation by DR1 and DR4 [3] | Peptide binding across HLA-DR genotypes on 3T3 [4] | Peptide binding (MFI), HLA-DR15 [5] | Peptide binding, DR1 on 3T3 [6] | Peptide binding (MFI), HLA-DR1 [7] |
| --- | --- | --- | --- | --- | --- | --- | --- | --- | --- | --- | --- | --- |
| CSCC[C@H](NC(=O)[C@H](CCCNC(=N)N)NC(=O)[C@H](CCSC)NC(=O)[C@H](CCCCN)NC(=O)[C@H](CO)NC(=O)[C@@H](NC(=O)[C@@H]1CCCN1C(=O)[C@@H](N)CCCCN)C(C)C)C(=O)N[C@@H](C)C(=O)N[C@H](C(=O)N1CCC[C@H]1C(=O)N[C@@H](CC(C)C)C(=O)N[C@@H](CC(C)C)C(=O)N[C@@H](CCSC)C(=O)N[C@@H](CCC(N)=O)C(=O)N[C@@H](C)C(=O)N[C@@H](CC(C)C)C(=O)O)[C@@H](C)O [CLIP102-118, Class II-associated invariant chain peptide (CLIP) 102–118] | 8 µM | 5 µM | no difference in the cell number | 9 µM | 3 µM | no difference in the cell number |  |  |  |  |  |  |
| GIAGFKGEQGPKGEP [CII263-272, type II collagen (CII) 263–272, biotinylated type II collagen peptide] |  |  |  |  |  |  | far less than that for MBP83-99 binding | present peptide from type II collagen | not at all to other DR-expressing cells | Significant binding | very weakly | Significant binding |
